Reference: publication PMC9661477, “New Dual P-Glycoprotein (P-gp) and Human Carbonic Anhydrase XII (hCA XII) Inhibitors as Multidrug Resistance (MDR) Reversers in Cancer Cells” (Journal of Medicinal Chemistry, 2022)

Key:
[1] = test system: P-gp KO HT29/DOX cells; assay: cells; conditions: Homo sapiens, HT-29, read-out: IC50 of doxorubicin
[2] = test system: hCA XII KO A549/DOX cells; assay: doxorubicin cytotoxicity enhancement assay in hCA XII KO A549/DOX cells; format: cell-based; conditions: Homo sapiens
[3] = test system: A549/DOX cells; assay: cells; conditions: Homo sapiens, A549, 72 h, read-out: IC50 of doxorubicin
[4] = test system: hCA XII KO HT29/DOX cells; assay: doxorubicin cytotoxicity enhancement assay in hCA XII KO HT29/DOX cells; format: cell-based; conditions: Homo sapiens, HT-29
[5] = test system: hCA XII KO HT29/DOX cells; assay: kinetic parameters of doxorubicin efflux in hCA XII KO HT29/DOX cells; format: cell-based, human; conditions: doxorubicin alone
Description: (§1) Cells were incubated for 3 h with 5 μM doxorubicin, alone or with the selected compounds, washed with PBS, trypsinized, centrifuged at 13 000g for 5 min, and resuspended in 0.5 mL of 1/1 solution ethanol/0.3 N HCl. […] To calculate the kinetic parameters, cells were incubated for 20 min with increasing (0–100 μM) concentrations of doxorubicin, alone or with the indicated compounds, then analyzed for the intracellular concentration of doxorubicin. […] The difference in the doxorubicin concentration between the two series, expressed as nmol doxorubicin extruded/min/mg cell proteins, was plotted versus the initial drug concentration.[69] Values were fitted to the Michaelis–Menten equation to calculate Vmax and Km, using the Enzfitter software (Biosoft Corporation, Cambridge, United Kingdom).

[6] = test system: hCA XII KO A549/DOX cells; assay: kinetic parameters of doxorubicin efflux in hCA XII KO A549/DOX cells; format: cell-based, human; conditions: doxorubicin alone
Description: as §1

[7] = test system: HT29/DOX cells; assay: cells; conditions: Homo sapiens, HT-29, 72 h, read-out: IC50 of doxorubicin
[8] = test system: A549/DOX cells; assay: kinetic parameters of doxorubicin efflux in A549/DOX cells; format: cell-based, human; conditions: doxorubicin alone
Description: as §1

[9] = test system: A549 cells; assay: kinetic parameters of doxorubicin efflux in A549 cells; format: cell-based, human; conditions: doxorubicin alone
Description: as §1

[10] = test system: HT29 cells; assay: doxorubicin cytotoxicity in HT29 cells; format: cell-based; conditions: Homo sapiens, HT-29, 72 h, MTT
Description: Human chemosensitive colon cancer HT29 cells, lung cancer A549 cells, not-transformed human colon epithelial EpiCoC cells, and lung epithelial BEAS-2B cells were purchased from ATCC (Manassas, VA). […] Cells were maintained in media supplemented with 10% v/v fetal bovine serum, 1% v/v penicillin–streptomycin, and 1% v/v L-glutamine. […] Knockout efficacy was evaluated by immunoblotting, as reported below.

[11] = test system: P-gp KO A549/DOX cells; assay: cells; conditions: Homo sapiens, A549, read-out: IC50 of doxorubicin
[12] = test system: HT29/DOX cells; assay: kinetic parameters of doxorubicin efflux in HT29/DOX cells; format: cell-based, human; conditions: doxorubicin alone
Description: as §1

[13] = test system: HT29 cells; assay: kinetic parameters of doxorubicin efflux in HT29 cells; format: cell-based, human; conditions: doxorubicin alone
Description: as §1

IC50 [1]: 0.46 ± 0.013 µM
IC50 [3]: 15.5 ± 0.93 µM
IC50 [7]: 12 ± 0.85 µM
IC50 [11]: 0.9 ± 0.013 µM
Structure (SMILES): COc1cccc2c1C(=O)c1c(O)c3c(c(O)c1C2=O)C[C@@](O)(C(=O)CO)C[C@@H]3O[C@H]1C[C@H](N)[C@H](O)[C@H](C)O1 [DOX, doxorubicin]
IC50 [2]: 5.44 ± 1.5 µM
IC50 [4]: 1.3 ± 0.06 µM
Km [5]: 0.58 ± 0.03 µM
Vmax of doxorubicin efflux [5]: 5.47 ± 0.12 µmol/min
Km [6]: 0.55 ± 0.028 µM
Vmax of doxorubicin efflux [6]: 4.08 ± 0.32 µmol/min
Km [8]: 0.45 ± 0.019 µM
Vmax of doxorubicin efflux [8]: 7.51 ± 0.31 µmol/min
Km [9]: 0.47 ± 0.017 µM
Vmax of doxorubicin efflux [9]: 2.35 ± 0.08 µmol/min
IC50 [10]: 1.38 ± 0.03 µM
Km [12]: 0.54 ± 0.01 µM
Vmax of doxorubicin efflux [12]: 8.10 ± 0.15 µmol/min
Km [13]: 0.55 ± 0.028 µM
Vmax of doxorubicin efflux [13]: 3.21 ± 0.04 µmol/min
